From BindingDB's records for doi:10.1016/j.ejmech.2019.05.053 (East China University of Science and Technology, 2019)

Assay: Reversal of P-gp-mediated multidrug resistance in human MCF7/Dox cells assessed as potentiation of doxorubicin-induced cytotoxicity by measuring doxorubicin IC50 at 12.5 uM after 48 hrs by MTT assay (Rvb = 51.19 +/- 0.95 microM)

Row | Compound | IC50 [µM]
1 | COc1cc(OC)c(C(=O)/C=C/c2cccc(N3CCOCC3)c2)c(O)c1CC=C(C)C | 31.6
2 | COc1ccc(/C=C/C(=O)c2c(OC)cc(OC)c(CC=C(C)C)c2O)cc1 | 20.7
3 | COc1cc(OC)c(C(=O)/C=C/c2ccc(Cl)cc2)c(O)c1CC=C(C)C | 21.8
4 | COc1cc(OC)c(C(=O)/C=C/c2ccc(N(C)C)cc2)c(O)c1CC=C(C)C | 17.4
5 | COc1cc(OC)c(C(=O)/C=C/c2cccc(F)c2)c(O)c1CC=C(C)C | 12.6
6 | COc1cc(OC)c(C(=O)/C=C/c2cccc(C(F)(F)F)c2)c(O)c1CC=C(C)C | 6.26
7 | COc1cc(OC)c(C(=O)/C=C/c2ccc(OC)c(OC)c2OC)c(O)c1CC=C(C)C | 27.5
8 | COc1cc(OC)c(C(=O)/C=C/c2cccc(N3CCN(C(=O)OC(C)(C)C)CC3)c2)c(O)c1CC=C(C)C | 20.1
9 | COc1cc(OC)c(C(=O)/C=C/c2ccc(N3CCN(C(=O)OC(C)(C)C)CC3)cc2)c(O)c1CC=C(C)C | 52.2
10 | COc1cc(O)c(C(=O)/C=C/c2cccc(N3CCN(C)CC3)c2)c(OC)c1 | 18
11 | COc1cc(O)c(C(=O)/C=C/c2ccc(N3CCN(C(=O)OC(C)(C)C)CC3)cc2)c(OC)c1 | 59.2
12 | COc1cc(O)c(C(=O)/C=C/c2cccc(N3CCN(C(=O)c4ccc(OC)c(OC)c4)CC3)c2)c(OC)c1 | 42.3
13 | COc1ccc(C(=O)/C=C/c2cccc(N3CCNCC3)c2)c(OC)c1 | 4.9
14 | CCc1c(OC)cc(OC)c(C(=O)/C=C/c2cccc(N3CCNCC3)c2)c1O | 4.69
15 | CCCCc1c(OC)cc(OC)c(C(=O)/C=C/c2cccc(N3CCNCC3)c2)c1O | 3.57
16 | CCCCCc1c(OC)cc(OC)c(C(=O)/C=C/c2cccc(N3CCNCC3)c2)c1O | 23.6
17 | COc1cccc(/C=C/C(=O)c2c(OC)cc(OC)c(CC=C(C)C)c2O)c1 | 7.86
18 | COc1cc(OC)c(C(=O)/C=C/c2cccc(Cl)c2)c(O)c1CC=C(C)C | 9.39
19 | COc1cc(OC)c(C(=O)/C=C/c2cccc(N3CCNCC3)c2)c(O)c1CC=C(C)C | 1.02
20 | COc1cc(O)c(C(=O)/C=C/c2cccc(N3CCNCC3)c2)c(OC)c1 | 2.63
21 | COc1cc(O)c(C(=O)/C=C/c2cccc(N3CCOCC3)c2)c(OC)c1 | 18.8
22 | CCCc1c(OC)cc(OC)c(C(=O)/C=C/c2cccc(N3CCNCC3)c2)c1O | 5.12
23 | COc1c(C)c(O)c(C)c(O)c1C(=O)/C=C/c1ccccc1 [CHEBI:70658] | 24.7
